Results reported in patent US9782366B2, “Drug for killing acid-fast (red) bacillus” (priority 2013, dated 2017).
“And” between values parts separate entries of the source, which are not always exact repeats. Equal values may be shown once. “Also recorded” adds a separate entry of the source. Where a name gives a salt, the structure may show the parent alone.

Columns and labels:
[1] = Change of urine pH with time after taking basic fuchsine; format: in vivo, human; conditions: for Urine pH value, Average: average of 9 patients, before drug 6; for Patent's urine pH value: individual patient (vegetarian), hydrochloride
Experimental: Therefore, the infected body, which is weakly acidic, is recovered to become weakly basic and this is beneficial to increasing the body's immunity such that Mycobacterium tuberculosis can be inhibited or removed. Because the integration of lysosomes inside macrophage with phagosome cannot be prevented, the bacteria can be removed. The changes in urine pH after taking basic fuchsine is illustrated in Table 2 and FIG. 1:
Remarks: The urine pH value reached the peak value at 2-3 hours after taking drug, and the peak period can sustain for 3-4 hours, then return to normal at 5-6 hours after taking drug.

[2] = system: Mycobacterium tuberculosis; assay: Drug Susceptibility Testing on Lowenstein-Jensen medium; format: cell-based
Experimental: Drug Susceptibility Testing
(II) Culture Method: Lowenstein-Jensen medium (Improved method)
KH2PO4: 2.4 g; MgSO4.7H2O 0.24 g; magnesium citrate: 0.6 g; asparagine: 3.6 g; glycerin: 12 ml; distilled water: 600 ml; potato starch: 30 g; fresh whole egg liquid: 1000 ml; 2% malachite green solution: 20 ml
4. Drug: 2% basic fuchsine aqueous solution: 100 ml
Add water to KH2PO4, MgSO4.7H2O, magnesium citrate, asparagine and glycerin, dissolve through heating in a boiling water bath, then add potato starch and continue heating in water bath for 30 minutes, stir continuously to form a uniform paste. After cooling to about 60° C., add 1000 ml fresh whole egg liquid and 20 ml 2% malachite green solution, mix thoroughly and then filter by double-layered gauze, then dispensed into test tube with screw cap. 7 ml of the prepared solution is added to each test tube, then add the 2% basic fuchsine solution according to a specific proportion into the test tube (see Table 3 for the adding amount), then place the test tube into the 85% steam incubator for 90 minutes, cooling to 60° C. or below and then place the test tube inclinedly into the biological safety cabinet (also called purification station), thereby the culture medium is cooled to solidify and form an incline surface. Put 10^−2/ml living bacilli solution of Mycobacterium tuberculosis to the incline surface of the culture medium. The living bacilli solution for each tube is 0.1 ml. The concentration of bacilli solution in the culture medium is 10^−3 mg/ml. Place in Digital Biochemical Incubator to culture. After culture for 5 weeks, no bacteria growth refers to drug susceptibility, continue bacteria growth refers to drug non-susceptibility (See Table 4 for testing results).

M. tuberculosis = assay: Basic Fuchsine for treatment of Tuberculosis (patients); format: in vivo, human; conditions: for Drug treatment after 1 month (TB status, symptoms): individual TB patient, capsule 500 mg (basic fuchsine:ground rice 3:2), 1-2 capsule/day oral, hydrochloride
Experimental: Basic Fuchsine for treatment of Tuberculosis
Dosage for patient: Capsule, 500 mg/capsule, where the weight ratio of basic fuchsine to ground rice is 3:2, each patient takes 1˜2 capsule/day.
Method of administration: Every morning, before breakfast, take the capsule, three month as one treatment course, see Table 5 for patients' records, see Table 6 for treatment results.
1. All patients were diagnosis and confirmed by standard TB hospital or TB prevention and treatment center, and all patients encountered disease recurrence after conventional standard drug treatment.
3. Before drug treatment with basic fuchsine drug, all patients have obvious symptoms: body weakness, discomfort, fever, cough, night sweat, ascites, blood spitting, blood vomiting, etc. (skeletal TB patient experience pain, some experience amenorrhea).

Leprosy ulcers = assay: Basic Fuchsine for Treatment of Leprosy (patients); format: in vivo, human; conditions: individual leprosy ulcer patient, treatment method External
blood cells = conditions: human, in vivo, po
From the text: After taking basic fuchsine, the basic fuchsine activity over time can be observed through the blood phenomenon at different times.
Healthy individual as normal subject for observation
Patient recovered from the disease who volunteer to testing subject as volunteer subject
Binocular microscope xsp-12G model
Wright-Giemsa stain solution (available in the market)
Phosphate buffer (available in the market)
Obtain peripheral blood smear from normal subject and volunteer subject (normal control blood film, standby use)
Obtain peripheral blood smear from volunteer subject at different time after taking fuchsine (oral fuchsine blood film, standby use)
After the last blood sampling is complete, carrying staining together with the blood film before taking fuchsine orally of volunteer subject and the peripheral blood film of normal subject
V. observe oral fuchsine blood film under microscope with 100× objective lens (oil immersion) and 12.5× eyepiece, real object is viewed under magnification at 1250 times and the results are shown in Table 3.

[3] = Toxicity Test of Basic Fuchsine in guinea pigs; conditions: guinea pigs, 8, 6 and 4 mg/kg body weight/d, once per day, 21 days
From the text: Materials: 24 white guinea pigs, purchased from Shenyang Pharmaceutical University, regular feeding; Basic fuchsine, from Tianjin Ju Hua Chemical Company Limited.
Matching and grouping of experimental animals: randomly divided into 4 groups (each group includes 6 counts, equal number of male and female), namely, control, high, medium, low fuchsine dosage group.
Method of administration: For each guinea pig, administered one time per day at a fixed time in the morning, the dosage for high, medium, low fuchsine dosage group are 8 mg/kg body weight/d, 6 mg/kg body weight/d, and 4 mg/kg body weight/d respectively; the drug administration period is 21 days, observe 3˜4 times per day, observe the guinea pig by spirit condition, appetite, gloss level of skin and hairs, physical condition, alertness and ability to escape.

Cc1cc(C(=C2C=CC(=N)C=C2)c2ccc(N)cc2)ccc1N [basic fuchsine, rosaniline hydrochloride]
Time at which urine pH value reached the peak value ([1]; after taking drug): 2-3 hours
Time of return of urine pH to normal ([1]; after taking drug): 5-6 hours
Time the urine pH peak period can sustain ([1]; after taking drug): 3-4 hours
Urine pH value, Average ([1]; After drug 1 h): 6.5
Urine pH value, Average ([1]; After drug 2 h): 7
Urine pH value, Average ([1]; After drug 3 h): 6.5
Urine pH value, Average ([1]; After drug 4 h): 6.5
Urine pH value, Average ([1]; After drug 5 h): 6
Urine pH value, Average ([1]; After drug 6 h): 6
Patent's urine pH value ([1]; After drug 1 h): 6 (2×) and 6.5 (5×) and 7 (2×)
Patent's urine pH value ([1]; After drug 2 h): 6.5 (2×) and 7 (5×) and 7.5 (2×)
Patent's urine pH value ([1]; After drug 3 h): 6 (2×) and 6.5 (5×) and 7 (2×)
Patent's urine pH value ([1]; After drug 4 h): 6 (2×) and 6.5 (5×) and 7 (2×)
Patent's urine pH value ([1]; After drug 5 h): 5.5 (2×) and 6 (5×) and 6.5 (2×)
Patent's urine pH value ([1]; After drug 6 h): 5.5 (2×) and 6 (5×) and 6.5 (2×)
Testing results (bacteria growth) ([2]; Tube 1, 0.7 ml 2% basic fuchsine solution, final dilution factor 500, 5 weeks at 36 C): Grow
Testing results (bacteria growth) ([2]; Tube 2, 0.525 ml 2% basic fuchsine solution, final dilution factor 750, 5 weeks at 36 C): Grow
Testing results (bacteria growth) ([2]; Tube 3, 0.35 ml 2% basic fuchsine solution, final dilution factor 1000, 5 weeks at 36 C): Grow
M. tuberculosis (acid-fast bacilli) in sputum after taking basic fuchsine for one month (M. tuberculosis; TB patients): no M. tuberculosis is found in sputum
Patients' blood test for liver and kidney after taking basic fuchsine (M. tuberculosis; TB patients): normal
TB symptoms after taking basic fuchsine for three months (M. tuberculosis; TB patients): TB symptoms are eliminated
X-ray after taking basic fuchsine for six months (M. tuberculosis; TB patients): recovery are confirmed through X-ray
Adverse reactions / side effect during the course of treatment (M. tuberculosis; all cases): no side effect is observed in all cases
Drug treatment after 1 month (TB status, symptoms) (M. tuberculosis; 1 capsule/day): TB Improved (−); also recorded: Improved TB (−)
Drug treatment after 1 month (TB status, symptoms) (M. tuberculosis; 2 capsule/day): Pain reduced
Symptoms after taking basic fuchsine for one month (M. tuberculosis; majority of TB patients): Symptoms are significantly reduces
Liver or kidney damage (M. tuberculosis; patients taking drug for more than two years): no liver or kidney damages is observed
Recurrence (M. tuberculosis; patients who are recovered): no single occurrence of recurrence
Remarks (outcome) (Leprosy ulcers): Absorbed,
Time remained inside the cell after absorption into blood (blood cells): 2 to 4 h
Observation of spirit condition, appetite, skin and hairs, physical condition, alertness, ability to escape [3]: No changes is observed
